Reference: patent publication US20070010399A1, “Crop plant-compatible herbicidal compositions comprising herbicides and safeners” (priority 2005, published 2007)
Read-outs that look alike come from different tables or passages of the source.

Tests used:
Assay type in all cases: in vivo
corn [1] = system: corn
Protocol: Seeds of monocotyledonous and dicotyledonous weed and crop plants are placed into sandy loam in wood fiber pots or in plastic pots, covered with soil and cultivated in a greenhouse, including during the vegetation period outdoors outside of the greenhouse, under good growth conditions. 2-3 weeks after sowing, the test plants are treated at the one- to three-leaf stage. The herbicidal compositions according to the invention, formulated as wettable powders (WP) or liquid (EC) are, in various dosages with a water application rate of 300 l/ha (converted), with added wetting agent (0.2 to 0.3%), sprayed onto the plants and the surface of the soil. 3 to 4 weeks after the treatment of the test plants, the effect of the preparations is rated visually in comparison to untreated controls.
The abbreviation “a.i.” means active ingredient.

corn [2] = conditions: seed treatment, post-emergence; reduction of corn damage by seed dressing with A3 0.5 g/kg; printed in the line of the herbicide alone
corn [3] = test: Herbicidal pre-emergence action: damage to corn
Excerpt: Seeds of monocotyledonous and dicotyledonous weed and crop plants are placed into sandy loam in cardboard pots and covered with soil. The herbicidal compositions according to the invention, formulated in the form of wettable powders or emulsion concentrates, are then applied as an aqueous suspension or emulsion with a water application rate of 600 to 800 l/ha (converted) in different dosages to the surface of the covering soil. After the treatment, the pots are placed in a greenhouse and kept under good growth conditions for the weeds. Optical scoring of the damage to the plants or the emergence damage is carried out after emergence of the test plants after a test period of 3 to 4 weeks, by comparison with untreated controls.
(§1) The herbicidal activity or damage is in each case stated in percent: 100% activity=the plants have died, 0% activity=like untreated control plants. The abbreviation “a.i.” means active ingredient.

corn [4] = test: Treatment of corn seed with safener, herbicide pre-emergence; conditions: reduction of corn damage by seed dressing with A3 0.5 g/kg, printed in the line of the herbicide alone
Protocol: Corn seed is treated (dressed) with various amounts of a safener and then placed-in sandy loam and covered with soil. The herbicides, formulated as emulsifiable concentrates or dust, are applied using a water application rate of 300 to 800 l/ha (converted) at various dosages to the surface of the covering soil. The optical scoring of the damage to the useful plants is carried out 3 to 5 weeks after the treatment.
as §1
In Tables 3 and 4, the dosage of the herbicide (component B) is stated in gram per hectare and that of the safener (component A) is stated in gram per kilogram of seed.

[5] = post-emergence, reduction of corn damage by adding safener A3 to the herbicide, printed in the line of the herbicide alone, spans both lines
[6] = pre-emergence, reduction of corn damage by adding safener A3 to the herbicide, printed in the line of the herbicide alone, spans both lines

COc1nn(C(=O)NS(=O)(=O)c2ccccc2OC(F)(F)F)c(=O)n1C [Component B1.1, flucarbazone]
Damage reduced by (corn [1]; [5]): 70% | Damage reduced by (corn [2]): 80% | Damage reduced by (corn [3]; [6]): 78%

COc1cc(OC)nc(NC(=O)NS(=O)(=O)c2cc(NC=O)ccc2C(=O)N(C)C)n1 [Component B1.2, foramsulfuron]
Damage reduced by (corn [1]; in vivo): 100%

COc1nc(C)nc(NC(=O)NS(=O)(=O)c2cc(I)ccc2C(=O)O)n1 [Component B1.3, iodosulfuron]
Damage reduced by (corn [3]; in vivo): 69%

COc1cc(OC)n2nc(S(=O)(=O)Nc3c(Cl)ccc(C)c3Cl)nc2n1 [Component B1.4, metosulam]
Damage reduced by (corn [3]; in vivo): 33%

COc1nc(C)nc(=NC(=O)NS(=O)(=O)c2ccccc2C(=O)O)[nH]1 [Component B1.5, metsulfuron]
Damage reduced by (corn [1]; [5]): 80% | Damage reduced by (corn [2]): 80%

COc1cc(OC)nc(NC(=O)NS(=O)(=O)c2ncccc2C(=O)N(C)C)n1 [Component B1.6, nicosulfuron]
Damage reduced by (corn [3]; [6]): 67%

COc1nc(C)nc(NC(=O)NS(=O)(=O)c2ccccc2CCC(F)(F)F)n1 [Component B1.8, prosulfuron]
Damage reduced by (corn [3]; in vivo): 67%

COc1nc(C)nc(NC(=O)NS(=O)(=O)c2ccsc2C(=O)O)n1 [Component B1.9, thifensulfuron]
Damage reduced by (corn [3]; [6]): 100%

COc1nc(C)nc(N(C)C(=O)NS(=O)(=O)c2ccccc2C(=O)O)n1 [Component B1.10, tribenuron]
Damage reduced by (corn [4]): 60% | Damage reduced by (corn [3]; [6]): 50%

CCOc1nc(F)cc2nc(S(=O)(=O)Nc3c(Cl)cccc3C(=O)OC)nn12 [Component B1.11, cloransulam-methyl]
Damage reduced by (corn [1]; in vivo): 50% | Damage reduced by (corn [3]; in vivo): 43%

COc1cc(Cl)nc(NC(=O)NS(=O)(=O)c2ccccc2C(=O)O)n1 [Component B1.12, chlorimuron]
Damage reduced by (corn [1]; [5]): 86% | Damage reduced by (corn [2]): 71%

CCOc1ccccc1OS(=O)(=O)NC(=O)Nc1nc(OC)cc(OC)n1 [Component B1.13, ethoxysulfuron]
Damage reduced by (corn [1]; in vivo): 50% | Damage reduced by (corn [3]; in vivo): 50%

Cc1ccn2nc(S(=O)(=O)Nc3c(F)cccc3F)nc2n1 [Component B1.16, flumetsulam]
Damage reduced by (corn [1]; in vivo): 43% | Damage reduced by (corn [3]; in vivo): 57%

COc1cc(OC)nc(NC(=O)NS(=O)(=O)c2c(C(=O)O)c(Cl)nn2C)n1 [Component B1.17, halosulfuron]
Damage reduced by (corn [1]; in vivo): 100%

COCc1cnc(C2=NC(C)(C(C)C)C(=O)N2)c(C(=O)O)c1 (stereo not drawn) [Component B1.18, imazamox]
Damage reduced by (corn [1]; [5]): 40%

Cc1cnc(C2=NC(=O)C(C)(C(C)C)N2)c(C(=O)O)c1 (stereo not drawn) [Component B1.19, imazapic]
Damage reduced by (corn [1]; in vivo): 33%

CCc1cnc(C2=NC(C)(C(C)C)C(=O)N2)c(C(=O)O)c1 (stereo not drawn) [Component B1.21, imazethapyr]
Damage reduced by (corn [1]; in vivo): 71%

COc1cc(OC)nc(NC(=O)NS(=O)(=O)c2cc(CNS(C)(=O)=O)ccc2C(=O)O)n1 [Component B1.22, mesosulfuron]
Damage reduced by (corn [3]; [6]): 56%

CCCOc1nn(C(=O)[N-]S(=O)(=O)c2ccccc2C(=O)OC)c(=O)n1C.[Na+] [Component B1.23, propoxycarbazone]
Damage reduced by (corn [2]): 68%

COc1cc(OC)nc(NC(=O)NS(=O)(=O)N(C)S(C)(=O)=O)n1 [Component B1.25, amidosulfuron]
Damage reduced by (corn [1]; in vivo): 80%

COc1nc(C)nc(NC(=O)NS(=O)(=O)c2ccccc2Cl)n1 [Component B1.26, chlorsulfuron]
Damage reduced by (corn [1]; in vivo): 86%

COc1nc(C)nc(NC(=O)NS(=O)(=O)c2ccccc2OCCCl)n1 [Component B1.28, triasulfuron]
Damage reduced by (corn [3]; in vivo): 71%

COc1cc(OC)nc(NC(=O)NS(=O)(=O)c2nc(C(F)(F)F)ccc2C(=O)O)n1 [Component B1.31, flupyrsulfuron]
Damage reduced by (corn [1]; [5]): 75% | Damage reduced by (corn [2]): 75%

COc1cc(OC)nc(NC(=O)NS(=O)(=O)c2c(C(=O)O)cnn2C)n1 [Component B1.32, pyrazosulfuron]
Damage reduced by (corn [3]; [6]): 38%

CCS(=O)(=O)c1cccnc1S(=O)(=O)NC(=O)Nc1nc(OC)cc(OC)n1 [Component B1.36, rimsulfuron]
Damage reduced by (corn [1]; in vivo): 100%

CS(=O)(=O)c1ccc(C(=O)C2C(=O)CCCC2=O)c(Cl)c1 [Component B2.1, sulcotrione]
Damage reduced by (corn [1]; [5]): 77%

CS(=O)(=O)c1ccc(C(=O)C2C(=O)CCCC2=O)c([N+](=O)[O-])c1 [Component B2.3, mesotrione]
Damage reduced by (corn [1]; [5]): 83%

Cc1c(C(=O)c2cnn(C)c2O)ccc(S(C)(=O)=O)c1C1=NOCC1 [Component B2.4, topramezone]
Damage reduced by (corn [1]; [5]): 64%

CSc1nnc(C(C)(C)C)c(=O)n1N [Component B3.1, metribuzin]
Damage reduced by (corn [3]; [6]): 50%

CCCN(CCC)C(=O)SCC [Component B4.1, EPTC]
Damage reduced by (corn [1]; [5]): 62%

CCc1cccc(C)c1N(C(=O)CCl)[C@@H](C)COC [Component B5.2, S-metolachlor]
Damage reduced by (corn [3]; [6]): 78%

COc1c(Cl)ccc(Cl)c1C(=O)O [Component B7.1, dicamba]
Damage reduced by (corn [1]; in vivo): 100%

CCC(CC)Nc1c([N+](=O)[O-])cc(C)c(C)c1[N+](=O)[O-] [Component B10.1, pendimethalin]
Damage reduced by (corn [3]; [6]): 54%
